Laboratory results from US20060293378A1, “Method of lowering intraocular pressure” (priority 2005, published 2006).

Test system: intraocular pressure
Assay: Intraocular pressure in rabbits after injection of an aqueous suspension into the right eye, compared with untreated left eyes
Assay type: in vivo
Conditions: suspension of 2 mg/mL compound with 7.5 mg/mL sodium carboxymethylcellulose injected into right eyes, dosages 60 μg, 100 μg and 140 μg, versus untreated left eyes, maintained over the 14 days of the test, FIGS. 1 to 3
Description: An aqueous suspension was produced containing 2 mg/mL of compound 21 illustrated above together with 7.5 mg/mL of sodium carboxymethylcellulose.

Q: `CC(C)OCc1ccc2c(c1)c1c3c(c4c(c1n2CCCOC(=O)CN(C)C)Cc1ccccc1-4)C(=O)NC3` [Compound 21] was tested. Which “effect on intraocular pressure over time” value did it give?
A: Its value is “significantly increased lowering of intraocular pressure”.
